Results on 2 substances are retold here after patent US20110263527A1, “Sulfated Galactans With Antithrombotic Activity, Pharmaceutical Composition, Method for Treating or Prophylaxis of Arterial or Venous Thrombosis, Method of Extraction and Use Thereof” (priority 2008, published 2011).

The target in data set [1] is T1, factor XII (Homo sapiens, UniProt P00748).
T1 construct: from tissue; host or cells: citrated human plasma
T1 sequence (P00748 20-615): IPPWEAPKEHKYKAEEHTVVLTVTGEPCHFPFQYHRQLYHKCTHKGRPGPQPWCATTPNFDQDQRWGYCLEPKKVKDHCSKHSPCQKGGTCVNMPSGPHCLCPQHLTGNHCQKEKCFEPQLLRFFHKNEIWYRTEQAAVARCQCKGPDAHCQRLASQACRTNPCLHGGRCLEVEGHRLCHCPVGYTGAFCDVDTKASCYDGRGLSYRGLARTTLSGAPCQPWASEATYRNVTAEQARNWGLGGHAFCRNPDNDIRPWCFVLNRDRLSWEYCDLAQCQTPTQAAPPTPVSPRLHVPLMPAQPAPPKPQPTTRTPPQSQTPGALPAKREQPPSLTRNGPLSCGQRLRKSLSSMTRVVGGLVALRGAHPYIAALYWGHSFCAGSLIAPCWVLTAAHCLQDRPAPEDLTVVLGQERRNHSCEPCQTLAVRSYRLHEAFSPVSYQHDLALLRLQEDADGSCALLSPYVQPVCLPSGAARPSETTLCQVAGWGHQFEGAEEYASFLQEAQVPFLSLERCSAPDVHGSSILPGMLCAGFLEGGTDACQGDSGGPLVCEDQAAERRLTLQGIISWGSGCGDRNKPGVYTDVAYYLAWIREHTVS
Nature of the data set: Activation of factor XII in human plasma in the presence of sulfated polysaccharides. In kind it is biochemical. Conditions: chromogenic substrate S-2302, FIG. 4. As to the method:
FIG. 4 refers to the factor XII activation in human plasma incubated with non-fractionated heparin (□), native sulfated galactans (▴), ˜14 kDa fragment (◯) and a ˜5 kDa fragment ([…]). After 60 seconds of incubation at 37° C., 0.3 mM of chromogenic substrate for plasma calicrein was added. The increase in absorbance at 405 nm was expressed in milli OD/min (mean±standard error of the mean (SEM), n=3).
h) Activation of Factor XII in the Presence of Sulfated Polysaccharides
The assays for activation of factor XII were performed on plates of 96 wells. Citrated human plasma was diluted with 3 volumes of TS buffer and samples (40 μL) were incubated with different concentrations of sulfated polysaccharides (30 μL). After incubation at 37° C. for 60 seconds, were added 30 μL of chromogenic substrate (S-2302, 0.3 mM) (Chromogenix AB, Mondal, Sweden) and absorbance at 405 nm for 300 seconds was recorded. S-2302 is a chromogenic substrate for plasma calicrein activated by its precalicrein precursor through the action of activated factor XII. The method for determining the activity of factor XIIa is based on difference in absorbance between formed p-nitroanilide and original substrate. The formation rate of p-nitroanilide, i.e., the increase in absorbance at 405 nm, is proportional to enzyme activity. No activation occurred in control experiments in the absence of sulfated polysaccharide.

For data set [2], the target named is T2, thrombin (antithrombin-mediated inactivation) (Homo sapiens, UniProt P00734+P01008).
T2 construct: purchased Haematologic Technologies Inc., Vermont, USA
Description: Thrombin inhibition by antithrombin in the presence of sulfated polysaccharides. The format is biochemical. Particulars: antithrombin 10 nM, thrombin 2 nM, FIG. 2A. On the procedure: (§1) Antithrombin (10 nM) or of heparin cofactor II (15 nM) were incubated with thrombin (2 nM) or factor Xa (2 nM) in the presence of various concentrations of non-fractionated heparin (□), low molecular weight heparin (▪), native sulfated galactans (▴), ˜14 kDa fragment (◯) and a ˜5 kDa fragment ([…]). After 60 seconds, the amidolytic thrombin activity and factor Xa were determined with a chromogenic substrate specific for each protease ([…]) [mean±standard error of the mean (SEM), n=3]. No inhibition was observed when thrombin or factor Xa was incubated with sulfated polysaccharide alone over the same range of tested concentrations.
(§2) g) Thrombin Inhibition or Factor Xa by Antithrombin and Heparin Cofactor II in the Presence of Sulfated Polysaccharides
(§3) The incubations were performed on plates of 96 wells. […] After 60 seconds at 37° C., were added 25 μL chromogenic substrate (S-2238 for thrombin or S-2222 for factor Xa) (Chromogenix AB, Mondal, Sweden), and was recorded absorbance at 405 nm for 120 seconds. The rate of absorbance change was proportional to the activity of thrombin or factor Xa remaining in the incubation. […]

Data set [3] concerns the target T3, thrombin (heparin cofactor II-mediated inactivation) (Homo sapiens, UniProt P00734+P05546).
T3 construct: purchased Haematologic Technologies Inc., Vermont, USA
Nature of the data set: Thrombin inhibition by heparin cofactor II in the presence of sulfated polysaccharides. The format is biochemical. Conditions: heparin cofactor II 15 nM, thrombin 2 nM, FIG. 2C. On the procedure:
as §1, §2, §3

For data set [4], the system named is bleeding. Also on record: species or system Wistar rats. Conditions: rat, in vivo. On the procedure: FIG. 6 refers to the effect on bleeding. Non-fractionated heparin (□), low molecular weight heparin (▪), native sulfated galactans (▴), and ˜5 kDa fragment ([…]) were infused into rats. After 5 minutes, the rats' tails were cut 3 mm from the tip and immersed in 40 mL of distilled water at room temperature. The loss of blood was determined after 60 minutes through the measure of hemoglobin in water. The results were expressed in μL of loss blood (mean±standard error of the mean (SEM), n=4). For clarity purposes only one SEM bar is shown for each point.
Wistar rats (both sexes, body weight ˜250 g) were anesthetized with a mixture of ketamine and xylazine, as previously described. The right carotid artery was cannulated and different polysaccharides doses were infused and allowed to circulate for 5 minutes. The rats tail was cut 3 mm from the tip and immersed in 40 mL of distilled water at room temperature. After 60 minutes, blood loss was determined by measuring the hemoglobin in water by using a spectrophotometric method (Zancan P, Mourão P A S. Venous and arterial thrombosis in rat models: dissociation of the antithrombotic effects of giycosaminoglycans. Blood Coagul Fibrin 2004; 15: 45-54). The blood volume was drawn from a standard curve based on absorbance at 540 nm.

The conditions of data set [5]: International Standard (85/600); cited from earlier work.
Data set [6] deals with T4, factor Xa (antithrombin-mediated inactivation) (Homo sapiens, UniProt P00742+P01008).
T4 construct: thrombin or factor Xa 2 nM (Haematologic Technologies Inc., Vermont, USA); purchased Haematologic Technologies Inc., Vermont, USA
Description: Factor Xa inhibition by antithrombin in the presence of sulfated polysaccharides. The format is biochemical. Conditions: antithrombin 10 nM, factor Xa 2 nM, FIG. 2B. As to the method: as §1, §2, §3

In data set [7] the test system is venous thrombosis. Nature of the data set: Venous thrombosis model (vena cava, thromboplastin and stasis). Particulars: 1.00 mg/kg; FIGS. 3A and 3B. The format is in vivo, Wistar rats. On the procedure: Assays were performed in rats with different doses of non-fractionated heparin (□), low molecular weight heparin (▪), native sulfated galactans (▴), ˜14 kDa fragment (◯) and a ˜5 kDa fragment ([…]) (mean±standard error of the mean (SEM), n=3). Thrombosis induced model (A and B) in the rats' vena cava. The mean weight of the thrombus for each dose was expressed as a percentage of weight in the absence of polysaccharide, (C) Thrombosis in the arteriovenous shunt model. The mean weight of the thrombus for each dose was expressed as a percentage of the weight of thrombus in the absence of polysaccharide, (D) laser irradiation induced arterial thrombosis model in the carotid artery. Results were expressed as the mean time to complete occlusion of the artery.
The antithrombotic activity in rats was investigated using rabbit brain thromboplastin with thrombogenic stimulus. We followed the guidelines for institutional animal care and experimentation. Wistar rats (both sexes, body weight of ˜250 g) were anesthetized with a mixture of ketamine and xylazine, as already described. […] A 0.7 cm segment was prepared starting just below the branching of the right renal vein and extending until after the left renal vein which was linked. Different doses of sulfated polysaccharides were intravenously administered 1 cm below the distal lost suture and moved left for 5 minutes. […]

T4 sequence (P00742 41-179 limits assumed): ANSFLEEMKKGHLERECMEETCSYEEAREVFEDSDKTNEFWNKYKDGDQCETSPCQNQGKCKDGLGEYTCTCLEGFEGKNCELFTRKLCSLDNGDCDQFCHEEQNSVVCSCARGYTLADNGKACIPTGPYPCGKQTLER
T4 sequence (P00742 235-488 limits assumed): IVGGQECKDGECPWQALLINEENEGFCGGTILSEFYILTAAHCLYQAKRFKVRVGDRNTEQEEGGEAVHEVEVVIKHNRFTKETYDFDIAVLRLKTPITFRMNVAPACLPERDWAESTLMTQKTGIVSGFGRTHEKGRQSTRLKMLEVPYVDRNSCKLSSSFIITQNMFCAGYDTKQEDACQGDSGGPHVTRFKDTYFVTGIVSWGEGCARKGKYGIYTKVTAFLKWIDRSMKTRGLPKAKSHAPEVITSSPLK
T4 sequence (P01008 33-464): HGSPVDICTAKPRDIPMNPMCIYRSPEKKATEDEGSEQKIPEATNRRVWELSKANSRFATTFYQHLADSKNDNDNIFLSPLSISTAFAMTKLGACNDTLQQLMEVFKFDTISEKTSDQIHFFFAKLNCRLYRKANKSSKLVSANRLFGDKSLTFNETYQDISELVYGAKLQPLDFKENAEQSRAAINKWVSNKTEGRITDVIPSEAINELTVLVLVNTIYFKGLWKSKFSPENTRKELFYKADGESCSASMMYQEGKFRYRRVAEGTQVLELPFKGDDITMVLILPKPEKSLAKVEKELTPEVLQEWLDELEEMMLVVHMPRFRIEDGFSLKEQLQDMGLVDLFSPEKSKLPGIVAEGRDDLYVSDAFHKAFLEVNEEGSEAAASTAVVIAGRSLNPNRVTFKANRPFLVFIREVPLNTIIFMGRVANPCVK

For dextran sulfate, in data set [1], the “factor XII activation” value is “activates factor XII”.
In the case of low molecular weight heparin, the “inactivation of thrombin by antithrombin” value in data set [2] is “more active than ˜5 kDa fragment”. For the same substance, the “inactivation of thrombin by heparin cofactor II” value in data set [3] is recorded as “more active than ˜5 kDa fragment”. Besides, in data set [4], the “effect on bleeding (hemorrhagic effect, bleeding time)” value is recorded as “had no effect”. In addition, the “activity of the standard” value in data set [5] is reported as 66 IU/mg. Also, in data set [6], the “inactivation of factor Xa by antithrombin” value is recorded as “more active than ˜5 kDa fragment”. The antithrombotic activity result in data set [7] is listed as “approximately 70%”.
